Molecules are shown by their SMILES.

Assay [1] has as its target T1, human orexin-2 receptor (Homo sapiens, UniProt O43614).
T1 construct: expressed in transfected cells; host or cells: CHO (Chinese hamster ovary) cells, kept under G418 selection
T1 sequence (O43614 1-444): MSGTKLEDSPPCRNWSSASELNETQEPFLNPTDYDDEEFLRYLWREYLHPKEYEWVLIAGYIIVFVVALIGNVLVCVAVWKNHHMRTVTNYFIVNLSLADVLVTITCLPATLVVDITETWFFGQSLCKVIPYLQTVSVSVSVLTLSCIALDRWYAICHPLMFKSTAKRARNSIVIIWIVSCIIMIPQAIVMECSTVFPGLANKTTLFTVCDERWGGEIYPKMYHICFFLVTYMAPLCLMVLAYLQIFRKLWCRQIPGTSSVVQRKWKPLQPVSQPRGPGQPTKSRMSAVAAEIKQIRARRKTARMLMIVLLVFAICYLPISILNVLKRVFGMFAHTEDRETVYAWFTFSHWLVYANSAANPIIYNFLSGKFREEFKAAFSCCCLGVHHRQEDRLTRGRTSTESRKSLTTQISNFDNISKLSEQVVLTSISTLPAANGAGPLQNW
As to the kind of experiment: Intracellular calcium measurement (FLIPR Tetra), orexin receptor antagonistic activity, OX2. To be noted: CHO cells expressing human orexin-2 receptor, 3 nM orexin-A, conditions B, normalized (*) using IC50 of on-plate reference compound. Type of assay: cell-based. The method, boiled down: (§1)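 Recombinant CHO cells expressing human OX1 or OX2, loaded with fluo-4 AM plus probenecid, were preincubated with antagonist 10 min, then stimulated with 3 nM human orexin-A. Peak fluorescence was compared with vehicle; IC50 derived, sometimes normalized to an on-plate reference compound; two pipetting/cell-splitting conditions were used.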

Assay [2] has as its target T2, human orexin-1 receptor (Homo sapiens, UniProt O43613).
T2 construct: expressed in transfected cells; host or cells: CHO (Chinese hamster ovary) cells, kept under G418 selection
T2 sequence (O43613 1-425): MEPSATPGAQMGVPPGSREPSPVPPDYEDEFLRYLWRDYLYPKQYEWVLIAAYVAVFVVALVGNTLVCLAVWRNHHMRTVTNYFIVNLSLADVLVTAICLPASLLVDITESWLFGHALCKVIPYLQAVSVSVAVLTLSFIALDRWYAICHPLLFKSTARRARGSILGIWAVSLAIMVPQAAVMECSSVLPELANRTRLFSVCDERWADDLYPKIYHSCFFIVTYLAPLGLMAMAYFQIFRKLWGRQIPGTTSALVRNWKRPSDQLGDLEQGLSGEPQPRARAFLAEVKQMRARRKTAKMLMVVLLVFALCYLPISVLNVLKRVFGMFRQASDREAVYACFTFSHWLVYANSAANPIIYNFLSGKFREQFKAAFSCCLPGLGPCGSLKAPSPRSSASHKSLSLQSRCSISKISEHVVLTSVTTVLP
As to the kind of experiment: Intracellular calcium measurement (FLIPR Tetra), orexin receptor antagonistic activity, OX1. Format: cell-based. To be noted: CHO cells expressing human orexin-1 receptor, 3 nM orexin-A, conditions B, normalized (*) using IC50 of on-plate reference compound. In outline: as §1
(Calcium assays in cells follow changes in intracellular calcium, usually with a dye or a luminescent sensor.)

The IC50 is the midpoint of a concentration-inhibition curve. As for `COc1ncc(-c2nccnc2C(=O)N(CCc2c[nH]c3c(C)cccc23)CC2CC2)cn1` [Example 439, 3-(2-Methoxy-pyrimidin-5-yl)-pyrazine-2-carboxylic acid cyclopropylmethyl-[2-(7-methyl-1H-indol-3-yl)-ethyl]-amide], the IC50 in assay [1] was determined as 28 nM; in assay [2], 461 nM.

As to `COc1cccc2c(CCN(CC3CC3)C(=O)c3nccnc3-c3cccc(C(F)(F)F)c3)c[nH]c12` [Example 444, 3-(3-Trifluoromethyl-phenyl)-pyrazine-2-carboxylic acid cyclopropylmethyl-[2-(7-methoxy-1H-indol-3-yl)-ethyl]-amide], the results for the IC50 in assay [1] and in assay [2] were 214 nM and 6000 nM, respectively.

On to `O=C(c1cncnc1-c1ccccc1)N(CCc1c[nH]c2cc(F)c(Cl)cc12)CC1CC1` [Example 471, 4-Phenyl-pyrimidine-5-carboxylic acid [2-(5-chloro-6-fluoro-1H-indol-3-yl)-ethyl]-cyclopropylmethyl-amide], for which the concentration for half-maximal inhibition (IC50) came out at 25 nM in assay [1] and 97 nM in assay [2].

Take `CN(C)c1nc(C(=O)N(CCc2c[nH]c3cc(F)c(Cl)cc23)CC2CC2)c(-c2ccccc2)s1` [Example 472, 2-Dimethylamino-5-phenyl-thiazole-4-carboxylic acid [2-(5-chloro-6-fluoro-1H-indol-3-yl)-ethyl]-cyclopropylmethyl-amide]: the IC50 in assay [1] was determined as 211 nM; in assay [2], 28 nM.

Turning to `COc1ccc2[nH]cc(CCN(CC3CC3)C(=O)c3cnc(C)nc3-c3ccccc3)c2c1C` [Example 479, 2-Methyl-4-phenyl-pyrimidine-5-carboxylic acid cyclopropylmethyl-[2-(5-methoxy-4-methyl-1H-indol-3-yl)-ethyl]-amide], the half-maximal inhibitory concentration (IC50) in assay [1] is 48 nM; in assay [2], 1380 nM.

With `O=C(c1cncnc1-c1ccccc1)N(CCc1c[nH]c2ccccc12)CC1CC1` [Example 497, 4-Phenyl-pyrimidine-5-carboxylic acid cyclopropylmethyl-[2-(1H-indol-3-yl)-ethyl]-amide], the values for the concentration for half-maximal inhibition (IC50) in assay [1] and in assay [2] were 10 nM and 227 nM, respectively.

For `CCN(C)c1nc(C(=O)N(CCc2c[nH]c3ccccc23)CC2CC2)c(-c2ccccc2F)s1` [Example 500, 2-(Ethyl-methyl-amino)-5-(2-fluoro-phenyl)-thiazole-4-carboxylic acid cyclopropylmethyl-[2-(1H-indol-3-yl)-ethyl]-amide], the IC50 amounted to 190 nM in assay [1] and 257 nM in assay [2].

Take `CCC(=O)Nc1ccc(-c2sc(C)nc2C(=O)N(CCc2c[nH]c3ccccc23)CC2CC2)cc1` [Example 501, 2-Methyl-5-(4-propionylamino-phenyl)-thiazole-4-carboxylic acid cyclopropylmethyl-[2-(1H-indol-3-yl)-ethyl]-amide]: the IC50 came to 330 nM in assay [1] and 246 nM in assay [2].

With `Cc1ccc(-c2ncncc2C(=O)N(CCc2c[nH]c3ccccc23)CC2CC2)cc1C` [Example 504, 4-(3,4-Dimethyl-phenyl)-pyrimidine-5-carboxylic acid cyclopropylmethyl-[2-(1H-indol-3-yl)-ethyl]-amide], the half-inhibitory concentration (IC50) came to 17 nM in assay [1] and 31 nM in assay [2].

Turning to `COc1cccc(-c2ncncc2C(=O)N(CCc2c[nH]c3ccccc23)CC2CC2)c1` [Example 506, 4-(3-Methoxy-phenyl)-pyrimidine-5-carboxylic acid cyclopropylmethyl-[2-(1H-indol-3-yl)-ethyl]-amide], the values for the 50% inhibitory concentration (IC50) in assay [1] and in assay [2] were 15 nM and 259 nM, respectively.

As to `O=C(c1cncnc1-c1cccc(F)c1)N(CCc1c[nH]c2ccccc12)CC1CC1` [Example 510, 4-(3-Fluoro-phenyl)-pyrimidine-5-carboxylic acid cyclopropylmethyl-[2-(1H-indol-3-yl)-ethyl]-amide], the half-maximal inhibitory concentration (IC50) in assay [1] is 25 nM; in assay [2], 352 nM.

Regarding `O=C(c1cncnc1-c1ccc(Br)c(Cl)c1)N(CCc1c[nH]c2ccccc12)CC1CC1` [Example 513, 4-(4-Bromo-3-chloro-phenyl)-pyrimidine-5-carboxylic acid cyclopropylmethyl-[2-(1H-indol-3-yl)-ethyl]-amide], the IC50 worked out at 17 nM in assay [1] and 36 nM in assay [2].

Regarding `CCN(CCc1c[nH]c2ccccc12)C(=O)c1nccnc1-c1cccc(OC)c1` [Example 533, 3-(3-Methoxy-phenyl)-pyrazine-2-carboxylic acid ethyl-[2-(1H-indol-3-yl)-ethyl]-amide], the IC50 stood at 258 nM in assay [1] and 2370 nM in assay [2].

On to `CCN(CCc1c[nH]c2ccccc12)C(=O)c1cncnc1-c1ccc(Br)c(Cl)c1` [Example 536, 4-(4-Bromo-3-chloro-phenyl)-pyrimidine-5-carboxylic acid ethyl-[2-(1H-indol-3-yl)-ethyl]-amide], for which the results for the IC50 in assay [1] and in assay [2] were 9 nM and 262 nM, respectively.

In the case of `CCN(CCc1c[nH]c2ccccc12)C(=O)c1cncnc1-c1cccc(OC)c1` [Example 541, 4-(3-Methoxy-phenyl)-pyrimidine-5-carboxylic acid ethyl-[2-(1H-indol-3-yl)-ethyl]-amide], the values for the concentration for half-maximal inhibition (IC50) in assay [1] and in assay [2] were 151 nM and 2930 nM, respectively.

`CCN(CCc1c[nH]c2ccccc12)C(=O)c1cncnc1-c1ccc(Cl)c(Cl)c1` [Example 544, 4-(3,4-Dichloro-phenyl)-pyrimidine-5-carboxylic acid ethyl-[2-(1H-indol-3-yl)-ethyl]-amide]: the concentration for half-maximal inhibition (IC50) was 15 nM in assay [1] and 177 nM in assay [2].

For the molecule `Cc1cccc(-c2ncncc2C(=O)N(CCc2c[nH]c3ccccc23)CC(F)(F)F)c1` [Example 549, 4-m-Tolyl-pyrimidine-5-carboxylic acid [2-(1H-indol-3-yl)-ethyl]-(2,2,2-trifluoro-ethyl)-amide], the 50% inhibitory concentration (IC50) in assay [1] was determined as 130 nM; in assay [2] it was 1160 nM.

For the molecule `Cc1cc(F)cc(-c2nccnc2C(=O)N(CCc2c[nH]c3ccccc23)CC(F)(F)F)c1` [Example 556, 3-(3-Fluoro-5-methyl-phenyl)-pyrazine-2-carboxylic acid [2-(1H-indol-3-yl)-ethyl]-(2,2,2-trifluoro-ethyl)-amide], the 50% inhibitory concentration (IC50) in assay [1] is 212 nM; in assay [2], 425 nM.

Take `COCCOc1cccc(-c2sc(C)nc2C(=O)N(CCc2c[nH]c3ccccc23)CC(=O)OC)c1` [Example 587, ([2-(1H-Indol-3-yl)-ethyl]-{5-[3-(2-methoxy-ethoxy)-phenyl]-2-methyl-thiazole-4-carbonyl}-amino)-acetic acid methyl ester]: the concentration for half-maximal inhibition (IC50) worked out at 38 nM in assay [1] and 404 nM in assay [2].

`COC(=O)CN(CCc1c[nH]c2ccccc12)C(=O)c1nc(C)sc1-c1cccc(Br)c1` [Example 590, {[5-(3-Bromo-phenyl)-2-methyl-thiazole-4-carbonyl]-[2-(1H-indol-3-yl)-ethyl]-amino}-acetic acid methyl ester]: the IC50 amounted to 10 nM in assay [1] and 468 nM in assay [2].

Turning to `COC(=O)CN(CCc1c[nH]c2ccc(F)cc12)C(=O)c1cnc(C)nc1-c1ccc(Cl)c(Cl)c1` [Example 604, {[4-(3,4-Dichloro-phenyl)-2-methyl-pyrimidine-5-carbonyl]-[2-(5-fluoro-1H-indol-3-yl)-ethyl]-amino}-acetic acid methyl ester], the IC50 in assay [1] stood at 196 nM; in assay [2], 421 nM.

Consider `Cc1cccc(-c2oc(C3CC3)nc2C(=O)N(CCc2c[nH]c3ccccc23)CC2CC2)c1` [Example 607, 2-Cyclopropyl-5-m-tolyl-oxazole-4-carboxylic acid cyclopropylmethyl-[2-(1H-indol-3-yl)-ethyl]-amide], for which the values for the IC50 in assay [1] and in assay [2] were 35 nM and 383 nM, respectively.

The record behind these values is patent publication US20110212968A1, “PHENETHYLAMIDE DERIVATIVES AND THEIR HETEROCYCLIC ANALOGUES” (priority 2008, published 2011).
